Test results published in patent US12692262B2, “Substituted ureas as orexin receptor agonists” (Merck Sharp & Dohme LLC, priority 2020, dated 2026).
pEC50: −log10 of the molar value.

Target: T1, human OX2R (Homo sapiens, UniProt O43614)
T1 construct: expressed in transfected cells; host or cells: CHO (Chinese hamster ovary) cells grown under G418 selection
T1 sequence (O43614 1-444): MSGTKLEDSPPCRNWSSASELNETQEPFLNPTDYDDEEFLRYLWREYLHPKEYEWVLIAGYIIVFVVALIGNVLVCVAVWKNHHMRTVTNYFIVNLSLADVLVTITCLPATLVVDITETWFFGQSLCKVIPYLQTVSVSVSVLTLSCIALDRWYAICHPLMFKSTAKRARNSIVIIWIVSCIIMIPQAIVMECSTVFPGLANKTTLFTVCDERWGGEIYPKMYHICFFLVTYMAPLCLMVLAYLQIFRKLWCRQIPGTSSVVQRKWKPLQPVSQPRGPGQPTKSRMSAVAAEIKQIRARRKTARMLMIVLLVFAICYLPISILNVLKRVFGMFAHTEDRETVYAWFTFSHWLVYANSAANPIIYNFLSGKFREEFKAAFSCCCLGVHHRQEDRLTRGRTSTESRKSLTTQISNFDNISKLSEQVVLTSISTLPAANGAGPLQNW
Test: IPOne (IP-1 accumulation) assay in CHO cells expressing human OX2R
Format: cell-based
Details: for pEC50: CHO cells expressing human OX2R, IP-One assay, 2 h incubation, four parameter logistic fit, read-out: OX2R Potency, EC50; for % of maximum agonist effect (relative to Orexin A): percent effect vs mean max effect of a reference compound at 1 uM (100% activity vs Orexin A), human OX2R
How it was run: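 Agonist EC50 values come from the inflection point of four-parameter logistic curves. Read-out is IP-1 accumulation detected with lysis buffer plus D2 and AB-cryptate reagents (HTRF), in CHO cells engineered to express human OX2R.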

Structure (SMILES)	pEC50	% of maximum agonist effect (relative to Orexin A)
CCN(C(=O)NC(CN1CCOC1=O)C(F)(F)F)[C@@H](c1cc(-c2cn3ccnc3c(OC)n2)c(OC)cn1)C(F)(F)F (stereo partly drawn) [Example 2-43, 1-ethyl-1-((S)-2,2,2-trifluoro-1-(5-methoxy-4-(8-methoxyimidazo[1,2-a]pyrazin-6-yl)pyridin-2-yl)ethyl)-3-(1,1,1-trifluoro-3-(2-oxooxazolidin-3-yl)propan-2-yl)urea]	8.96	99.8%
CCCC(C#N)NC(=O)N(CC)[C@H](C)c1cccc(-c2cn3ccnc3c(OC)n2)c1 (stereo partly drawn) [Example 2-37, 3-(1-cyanobutyl)-1-ethyl-1-((R)-1-(3-(8-methoxyimidazo[1,2-a]pyrazin-6-yl)phenyl)ethyl)urea]	7.70	100.8%
CCN(C(=O)N[C@@H]1C[C@@]1(C)C(F)(F)F)[C@@H](c1cc(-c2cn3ccnc3c(OC)n2)c(OC)cn1)C(F)(F)F [Example 2-27, 1-ethyl-3-((1R,2R)-2-methyl-2-(trifluoromethyl)-cyclopropyl)-1-((S)-2,2,2-trifluoro-1-(5-methoxy-4-(8-methoxyimidazo[1,2-a]pyrazin-6-yl)pyridin-2-yl)ethyl)urea]	8.03	101.1%
